According to patent publication US20020091082A1, “Methods of modulating symptoms of hypertension” (priority 2000, published 2002):
Entries after “also recorded” stand apart in the source; their conditions may differ. Read-outs that look alike come from different tables or passages of the source.

How the values were obtained:
VEGF mRNA = assay: Stretch-induced VEGF mRNA expression in bovine retinal pericytes (Northern blot); type: cell-based; settings: BRPC; for effect on stretch-induced VEGF mRNA expression: 9%/60 cpm cyclic stretch, PD98059 20 uM, GF109203X 5 uM; for effect on stretch-induced VEGF mRNA expression / inhibition of stretch-induced VEGF mRNA expression: wortmannin 100 nM, LY294002 50 uM; for inhibition of stretch-induced VEGF mRNA expression: 9%/60 cpm cyclic stretch 3 hours, genistein 20 uM, adenovirus 1×10^8 pfu/ml; for effect on basal VEGF mRNA expression: unstretched
Protocol: To determine the mechanism by which stretch increased VEGF mRNA expression, inhibitors of MEK1 (PD98059, 20 uM), classical/novel PKC isoforms (GF109203X, 5 uM), tyrosine phosphorylation (genistein, 20 uM) and PI3 kinase (wortmannin, 100 nM and LY294002, 50 uM) were evaluated. In all experiments 9%/60 cpm cyclic stretch for 3 hours induced VEGF mRNA expression. Inhibition of ERK1/2 utilizing PD98059 had little effect on either basal or stretch-induce expression of VEGF. […] LY294002 and wortmannin inhibited stretched induced VEGF mRNA expression by 85±20% (p=0.039) and 96±25% (p=0.035), respectively.
Cell culture: Primary cultures of bovine retinal pericytes (BRPC) were isolated by homogenization and a series of filtration steps. BRPC were cultured in DMEM containing 5.5 mM glucose and 20% FBS. The cells were maintained in 5% CO2 at 37 °C and media were changed every three days. Cells were characterized for their homogeneity by immunoreactivity with monoclonal antibody 3G5. Cells were plated at a density of 2×10^4 cells/cm2 and passaged when confluent. The media were changed every three days and only cells from passages 2-5 were used for experiments.
(§1) Mechanical Stretch: For pericyte experiments, cells were plated on 6-well flexiblebottom culture plates coated with collagen (Flexcell Corp.,Mckeepsport, Pa.). After 2 days, media were changed to DMEM containing 1% calf serum and the cells incubated overnight. Cells were then subjected to uniform radial and circumferential strain in 5% CO2 at 37° C. using a computer-controlled, vacuum stretch apparatus (Flexcer Cell Strain Unit; Flexcel Corp.). A physiologic stretch frequency of 60 cpm and 3-20% prolongation of elastomer bottomed plates were used as previously described.
RNA Extraction: RNA was extracted using the guanidinium thiocynate method. RNA purity was determined by the ratio of optical density (OD) measured at 260 & 280 nm and RNA quantity was estimated using OD measured at 260 nm.
Northern Blot Analysis: Northern blot analysis was performed on 15 μg total RNA per lane after 1% agarose-2M formaldehyde gel electrophoresis and subsequent capillary transfer to Biodyne nylon membranes (Pall BioSupport, East Hills, N.Y.). Membranes underwent ultraviolet crosslinking using a UV Stratalinker 2400 (STRATAGENE, La Jolla, Calif.). Radioactive probes were generated using Amersham Megaprime labeling kits (Buckinghamshire, England) and 32PdCTP (NEN Life Science Products Inc., Boston, Mass.). Blots were pre-hybridized, hybridized and washed 4 times in 0.5×SSC, 5% SDS at 65 °C for 1 hour in a rotating hybridization oven (Robbins Scientific Corporation, Sunnyvale, Calif.). All signals were analyzed using a computing PhosphorImager with ImageQuant software analysis (Molecular Dynamics, Sunnyvale, Calif.). The signal for each sample was normalized by re-probing the same blot using 36B4 cDNA control probe.

ERK1/2 = assay: Stretch-induced ERK1/2 phosphorylation in retinal pericytes; type: cell-based, bovine
Protocol: To determine what pathways were activated in retinal pericytes exposed to cardiac profile cyclic stretch, ERK phosphorylation, PI3 kinase activity and Akt phosphorylation were evaluated. Stretch induced a rapid increase in ERK 1/ 2 phosphorylation which was initially evident after 2 minutes, maximal at 5 min (ERK1=20-fold; ERK2=8.9-fold increase) and still maintained above baseline even after 60 min (ERK1=6.3-fold; ERK2=4.5-fold).
Further confirmation that stretch-induced ERK1/2 activation was not involved in mediating stretch-induced VEGF expression was obtained by assaying ERK1/2 phosphorylation after exposure to the inhibitors described herein. The inhibitor response for stretch-induced ERK1/2 phosphorylation was opposite that observed for stretch-induced VEGF expression. Stretch-induced ERK1/2 phosphorylation was reduced by inhibition of MEK1 (85+10.8%, 88+7.1%, p<0.05) or classical/novel PKC (83+23%, 84+7.1% p<0.05) but relatively unaffected by inhibition of PI3 kinase or tyrosine phosphorylation. Adenovirus infection with dominant negative ERK, wild type active ERK63 or b-galactosidase control had no effect on stretch-induced VEGF expression.
Mechanical Stretch: For pericyte experiments, cells were plated on 6-well flexiblebottom culture plates coated with collagen (Flexcell Corp.,Mckeepsport, Pa.). […]

Akt = assay: Stretch-induced Akt phosphorylation in retinal pericytes; type: cell-based, bovine; settings: cyclic stretch
Protocol: The mechanism of stretch-induced Akt phosphorylation was evaluated using two PI3 kinase inhibitors (LY294002 and wortmannin), the MEK1 inhibitor PD98059 and the tyrosine kinase inhibitor genistein.
as §1
ERK1/2 and Akt phosphorylation: Cells were washed with cold PBS and lysed in 1X Laemmli buffer containing protease inhibitors as described above. Cell lysates were heated to 95 °C for 2 min and equal volume of lysates were subjected to SDS-PAGE under reducing conditions. The blots were incubated with anti-phosphospecific ERK1(p44)/ERK2(p42) or anti-phosphospecific Akt antibody (New England Biolabs, Beverly, Ma.). Lane loading differences were normalized by reblotting with non-phosphorylation-specific (total) anti ERK1 antibody (Santa Cruz Biological) or anti-total Akt antibody(New England Biolabs).

[1] = Blood pressure in spontaneously hypertensive rats (tail cuff); type: in vivo, rat; settings: SHR rats, treatment for one week in drinking water
Protocol: (§2) 12 week-old male spontaneously hypertensive rats (SHR) and weight-matched Wistar-Kyoto (WKY) control animals were used. Systolic and diastolic blood pressures were measured from each animal by tail cuff. Animals were treated with or without 100 mg/kg/day captopril or 10 mg/kg/day candesartan cilexetil for one week. Drugs were administered in drinking water. Blood measurements were repeated after therapy and the retinas individually isolated.

retinal KDR mRNA = assay: Retinal KDR mRNA in spontaneously hypertensive rats (multiplex RT-PCR); type: in vivo, rat; settings: SHR rats, captopril 100 mg/kg/day or candesartan cilexetil 10 mg/kg/day in drinking water for one week
Protocol: To determine the effect of hypertension on KDR levels in vivo, KDR mRNA was quantified in hypertensive rats (SHR) as well as weight-matched controls (WKY). […] Captopril is an angiotensin converting enzyme (ACE) inhibitor. Candesartan Cilexetil is an angiotensin II antagonist.
as §2
(§3) RNA was isolated from individual retinas and RNA reverse transcribed at 42° C. using random hexamer primers. PCR amplification was carried out using a 55° C. annealing temperature. The samples were separated on a 6% nondenaturing polyacrylamide gel. The gel was dried and analyzed by PhosphorImager. Signal intensity was normalized using rat ribosomal phosphoprotein P0 (RRRPP0) as an internal standard.

KDR mRNA [2] = assay: Cyclic stretch-induced KDR mRNA expression; type: cell-based, bovine
Protocol: (§4) Cyclic stretch induces KDR mRNA at least 2.2 fold. […] In contrast, angiotensin II which also induces KDR mRNA is blocked from doing so by candesartan cilexetil, an AT1 receptor antagonist. Thus, unlike Angiotensin II induced KDR expression, stretch induced KDR expression is not mediated through the AT1 receptor pathway.
(§5) Cells were seeded on 6-well flexible-bottom plates coated with bovine fibronectin and subjected to uniform radial and circumferential strain using a computercontrolled, vacuum stretch apparatus (Flexcer Cell Strain Unit; Flexcel Corp.) with cardiac profile at a frequency of 60 cpm.

KDR mRNA [3] = assay: Angiotensin II-induced KDR mRNA expression; type: cell-based
Source text: as §4

retinal VEGF mRNA = assay: Retinal VEGF mRNA in spontaneously hypertensive rats (multiplex RT-PCR); type: in vivo, rat; settings: SHR rats; captopril 100 mg/kg/day or candesartan cilexetil 10 mg/kg/day in drinking water for one week
Protocol: as §2, §3

[4] = test system: bovine retinal endothelial cells (BRECs); assay: 3H-thymidine incorporation (mitogenesis) under cyclic stretch; type: cell-based
Protocol: Cells can respond to VEGF by proliferation. A measure of proliferation is the rate of cell progression through mitosis. Cells transiting S phase will incorporate ^3H-thymidine.
To determine if the effects of cyclic stretching on mitogenesis are mediated by VEGF signaling, cells were stretched while treated with a VEGF neutralizing antibody.
as §5
Confluent cells were placed in 1% calf serum for 24 hours and then subjected to 9%/60 cpm cyclic stretch for 24 hrs. During the last 12 hrs, VEGF (25 ng/ml final). VEGF neutralizing antibody (10 μg/ml was added 30 minutes prior to stretch onset. ^3H-thymidine (0.5 μCi/ml)was added during the last 6 hours.

Molecule: CN(C)CCCn1cc(C2=C(c3c[nH]c4ccccc34)C(=O)NC2=O)c2ccccc21 [GF109203X]
- effect on stretch-induced VEGF mRNA expression (VEGF mRNA): did not alter
- effect on stretch-induced ERK1/2 phosphorylation (ERK1/2): inhibition

Molecule: O=c1cc(N2CCOCC2)oc2c(-c3ccccc3)cccc12 [LY294002]
- inhibition of stretch-induced Akt phosphorylation (Akt): 119+14%
- inhibition of stretch-induced VEGF mRNA expression (VEGF mRNA): 85±20%

Molecule: COc1cccc(-c2cc(=O)c3ccccc3o2)c1N [PD98059]
- effect on stretch-induced Akt phosphorylation (Akt): little effect
- effect on stretch-induced VEGF mRNA expression (VEGF mRNA): little effect; also recorded: not suppressed
- effect on basal VEGF mRNA expression (VEGF mRNA): little effect

Molecule: CCOc1nc2cccc(C(=O)OC(C)OC(=O)OC3CCCCC3)c2n1Cc1ccc(-c2ccccc2-c2nn[nH]n2)cc1 (stereo not drawn) [candesartan cilexetil]
- effect on blood pressure [1]: normalization
- effect on hypertension-induced elevation of retinal KDR mRNA (retinal KDR mRNA): blocked
- effect on hypertension-induced elevation of retinal KDR mRNA (retinal KDR mRNA; listed as candesartan): returned to baseline levels
- effect on cyclic stretch-induced KDR mRNA expression (KDR mRNA [2]): not significantly affected
- effect on cyclic stretch-induced KDR mRNA expression (KDR mRNA [2]; listed as candesartan): not inhibited
- effect on angiotensin II-induced KDR mRNA (KDR mRNA [3]; angiotensin II stimulation): blocked
- effect on hypertension-induced elevation of retinal VEGF mRNA (retinal VEGF mRNA): blocked

Molecule: C[C@H](CS)C(=O)N1CCC[C@H]1C(=O)O [captopril]
- effect on blood pressure [1]: normalization
- effect on hypertension-induced elevation of retinal KDR mRNA (retinal KDR mRNA): blocked; also recorded: returned to baseline levels
- effect on hypertension-induced elevation of retinal VEGF mRNA (retinal VEGF mRNA): blocked

Molecule: O=c1c(-c2ccc(O)cc2)coc2cc(O)cc(O)c12 [genistein]
- inhibition of stretch-induced Akt phosphorylation (Akt): 84+14%
- inhibition of stretch-induced VEGF mRNA expression (VEGF mRNA): 87±12%
- effect on basal VEGF mRNA expression (VEGF mRNA): without altering
- effect on stretch-induced ERK1/2 phosphorylation (ERK1/2): lack of response

Molecule: COC[C@H]1OC(=O)c2coc3c2[C@@]1(C)C1=C(C3=O)[C@@H]2CCC(=O)[C@@]2(C)C[C@H]1OC(C)=O [wortmannin]
- inhibition of stretch-induced Akt phosphorylation (Akt): 119+18%
- inhibition of stretch-induced VEGF mRNA expression (VEGF mRNA): 96±25%

Molecule: VEGF
- increase of VEGF-stimulated thymidine uptake by cyclic stretch ([4]; BREC, cyclic stretch plus VEGF): 2.6+/−0.2 fold
- increase in 3H-thymidine uptake ([4]; cyclic stretching in combination with exogenous VEGF (25 ng/ml)): 257±21%
- effect on 3H-thymidine uptake ([4]; exogenous VEGF alone, no stretch): no significant effect

Molecule: angiotensin II (DRVYIHPF; Angiotensin-2; UniProt P01019 25-32, looked up) [peptide that induces KDR mRNA through the AT1 receptor]
- KDR mRNA induction (KDR mRNA [3]): induces
